According to PMC8151276, “An Integrated Approach toward NanoBRET Tracers for Analysis of GPCR Ligand Engagement” (Molecules, 2021):

Tests used:
[1] = biological target: T1, HTR4 (Homo sapiens, UniProt Q13639); experiment: NanoBRET screen HiBiT-HTR4 in HEK293; assay type: binding
T1 construct: purchased Promega (in-house HiBiT-GPCR construct library, NanoBRET)
Experimental: (§1) Each tracer candidate was screened across the entire library of HiBiT-GPCR constructs using NanoBRET as the detection modality. As depicted in Figure 4A, the specificity of interactions was evaluated through decrease in BRET due to competitive displacement of a bound tracer by excess parental compound. Each tracer was analyzed for binding to each HiBiT-GPCR fusion in the absence and in the presence of competing parental compound. Briefly, HEK293 cells were transfected with HiBiT-GPCR constructs diluted into promoterless DNA to reduce expression and maximize translocation to the cell surface. Each tracer candidate was then screened at concentrations of 1 μM and 0.1 μM across cells expressing these fusions. Cells were treated for 1.5 h with tracer either alone or in the presence of 20 μM competing parental compound (i.e., control). BRET was measured upon addition of purified LgBiT and subsequent complementation with HiBiT genetically fused to a GPCR. The specificity of interactions was assessed through a decrease in BRET signal due to competitive displacement of the bound tracer. To further gauge the robustness of these interactions, the fold response over the control (i.e., BRETtracer/BRETcontrol) was calculated. We chose a 1.5-fold response, which translates to ≥7-fold signal over noise as the minimal threshold required to score an interaction as positive. […]. Below we highlight the screening results obtained for our exemplary fluorescent tracers based on Clozapine, Amitriptyline and AZD1283.
(§2) HiBiT-GPCR DNA constructs were diluted in 10 mM Tris pH 8 to a final concentration of 0.01 μg/μL, arrayed in 96-well plates and stored at −20 °C. For transfection, HEK293 cells were suspended in Opti-MEM (without phenol red) supplemented with 2% fetal bovine serum (Seradigm) and 100 units/mL penicillin–streptomycin (Gibco) at a final concentration of 220,000 cells/mL and dispensed into white 96-well plates at 90 μL/well. Subsequent transfections and screens were carried using an Agilent Bravo Automated Liquid Handling Platform. First, the 96-well HiBiT DNA arrays were diluted 25-fold in Opti-MEM (without serum or phenol red) to a final concentration of 0.0004 μg/μL and 20 μL of the diluted DNAs were transferred into new 96-well plates. Next, promoterless carrier DNA (1 μg/μL) was diluted 25-fold (0.04 μg/μL) and then dispensed into the diluted arrays at 20 μL/well. Following brief mixing, Viafect transfection reagent (Promega) diluted 16-fold into Opti-MEM was dispensed into the plates at 40 μL/well. After mixing by pipetting, plates were incubated for 10 min on the pipetting station deck. The DNA-transfection reagent complexes were then added to plates containing cells. To facilitate the screen, 10 μL of DNA-transfection reagent complexes were added in duplicates to the top 4 and bottom 4 rows, resulting in two identical 48-well arrays per plate. Plates with transfected cells were incubated for 18–20 h at 37 °C/5% CO2. A screen of each tracer across the entire library using two different concentrations requires duplicate plates of transfected cells. Depending on the number of tracers being screened, transfections can be scaled up using the same ratios. The next day, for each tracer, four 20× screening solutions in tracer dilution buffer (Promega) were prepared: two duplicates at final concentration of 20 μM and two duplicates at a final concentration of 2 μM. A competing unmodified compound was added to one of each duplicate at a final concentration of 400 μM. The four resulting solutions were diluted 4-fold in Opti-MEM without serum or phenol red to generate 5× solutions (5 µM and 0.5 µM tracer +/− 100 μM competing compound). To screen the library, a BioTek MultiFlo FX liquid dispenser was used to dispense 22.5 µL of tracer solution to the top 4 rows and 22.5 µL tracer + competing compound solution to the 4 bottom rows. Plates were briefly mixed on an orbital shaker and incubated for 1.5 h at room temperature. […]

[2] = biological target: T2, GALR1 (Homo sapiens, UniProt P47211); experiment: NanoBRET screen HiBiT-GALR1 in HEK293; assay type: binding
T2 construct: purchased Promega (in-house HiBiT-GPCR construct library, NanoBRET)
T2 sequence (P47211 1-349): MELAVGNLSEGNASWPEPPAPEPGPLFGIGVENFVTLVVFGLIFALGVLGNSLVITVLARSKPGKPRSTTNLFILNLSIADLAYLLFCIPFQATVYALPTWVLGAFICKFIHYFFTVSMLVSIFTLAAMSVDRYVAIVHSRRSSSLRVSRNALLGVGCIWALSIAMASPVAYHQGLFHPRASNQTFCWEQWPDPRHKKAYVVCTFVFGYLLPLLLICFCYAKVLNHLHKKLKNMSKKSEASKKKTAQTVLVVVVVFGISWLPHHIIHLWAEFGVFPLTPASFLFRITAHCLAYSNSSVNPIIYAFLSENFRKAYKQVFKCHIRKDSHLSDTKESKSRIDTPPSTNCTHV
Experimental: as §1, §2

T1 sequence (Q13639 whole entry): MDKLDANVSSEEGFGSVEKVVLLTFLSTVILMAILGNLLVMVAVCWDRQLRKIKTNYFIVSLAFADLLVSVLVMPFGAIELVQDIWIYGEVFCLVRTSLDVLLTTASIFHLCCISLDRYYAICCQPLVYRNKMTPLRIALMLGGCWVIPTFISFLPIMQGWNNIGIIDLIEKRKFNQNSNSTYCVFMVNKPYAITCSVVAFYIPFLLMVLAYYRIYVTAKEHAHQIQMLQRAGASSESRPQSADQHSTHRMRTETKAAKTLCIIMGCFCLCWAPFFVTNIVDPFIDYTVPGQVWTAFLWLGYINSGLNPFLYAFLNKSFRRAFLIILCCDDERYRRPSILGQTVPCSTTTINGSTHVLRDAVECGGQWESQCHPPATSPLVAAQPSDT

Compound	NanoBRET Fold Response ([1]; HTR4, tracer 0.1μM)	NanoBRET Fold Response ([1]; HTR4, tracer 1μM)	NanoBRET Fold Response ([2]; GALR1, tracer 0.1μM)	NanoBRET Fold Response ([2]; GALR1, tracer 1μM)	also measured
CN1CCN(C2=Nc3cc(Cl)ccc3Nc3ccc(CNC(=O)CCOCCOCCOCCOCCNC(=O)CCc4ccc5n4[B-](F)(F)[N+]4=C(c6ccc[nH]6)C=CC4=C5)cc32)CC1 [Clozapine-b-2-NB590]	–	–	–	–	NanoBRET Fold Response ([1]; HTR4, 0.1μM tracer): 0.98; NanoBRET Fold Response ([1]; HTR4, 1μM tracer): 0.99; NanoBRET Fold Response ([2]; GALR1, 0.1μM tracer): 0.99; NanoBRET Fold Response ([2]; GALR1, 1μM tracer): 0.99
CN(C)CCC=C1c2ccccc2CCc2ccc(C(=O)NCCNC(=O)CCOCCOCCOCCOCCNC(=O)CCc3ccc4n3[B-](F)(F)[N+]3=C(c5ccc[nH]5)C=CC3=C4)cc21 [Amitriptyline-b-2-NB590]	–	–	–	–	NanoBRET Fold Response ([1]; tracer at 0.1μM): 1.03; NanoBRET Fold Response ([1]; tracer at 1μM): 1.09; NanoBRET Fold Response ([2]; tracer at 0.1μM, listed as amitriptyline-b-2-NB590): 0.98; NanoBRET Fold Response ([2]; tracer at 1μM, listed as amitriptyline-b-2-NB590): 1.03
CCOC(=O)c1cc(C#N)c(N2CCC(C(=O)NS(=O)(=O)Cc3ccccc3/C=C/C(=O)NCCNC(=O)CCc3ccc4n3[B-](F)(F)[N+]3=C(c5ccc[nH]5)C=CC3=C4)CC2)nc1C [AZD1283-1-NB590]	–	–	–	–	NanoBRET Fold Response ([1]; HTR4, 0.1μM): 1.01; NanoBRET Fold Response ([1]; HTR4, 1μM): 1.00; NanoBRET Fold Response ([2]; GALR1, 0.1μM): 1.03; NanoBRET Fold Response ([2]; GALR1, 1μM): 1.09
CC(C)N(CC[C@H](c1ccccc1)c1cc(CCNC(=O)CCOCCOCCOCCOCCNC(=O)CCc2ccc3n2[B-](F)(F)[N+]2=C(c4ccc[nH]4)C=CC2=C3)ccc1O)C(C)C [Tolterodine-2-NB590]	0.92	1.00	1.04	0.99	–
CC(C)N(CC[C@H](c1ccccc1)c1cc(CCNC(=O)c2ccc(CNC(=O)CCc3ccc4n3[B-](F)(F)[N+]3=C(c5ccc[nH]5)C=CC3=C4)cc2)ccc1O)C(C)C [Tolterodine-BZ-NB590]	0.94	0.99	0.95	1.07	–
O=C(CCOCCOCCOCCOCCNC(=O)CCc1ccc2n1[B-](F)(F)[N+]1=C(c3ccc[nH]3)C=CC1=C2)NCCCN1CCN(C2=Nc3ccccc3Oc3ccc(Cl)cc32)CC1 [Loxapine-a-2-NB590]	1.02	1.04	1.03	1.21	–
CN1CCN(C2=Nc3cc(Cl)ccc3N(CC(=O)NCCOCCOCCOCCOCCNC(=O)CCc3ccc4n3[B-](F)(F)[N+]3=C(c5ccc[nH]5)C=CC3=C4)c3ccccc32)CC1 [Clozapine-c-2-NB590]	–	–	–	–	NanoBRET Fold Response ([1]; HTR4, 0.1μM tracer): 1.02; NanoBRET Fold Response ([1]; HTR4, 1μM tracer): 1.07; NanoBRET Fold Response ([2]; GALR1, 0.1μM tracer): 1.02; NanoBRET Fold Response ([2]; GALR1, 1μM tracer): 1.03
CN(C)CCC=C1c2ccccc2CCc2ccc(C(=O)NCCNC(=O)CCOCCOCCOCCOCCNC(=O)CCc3ccc4n3[B-](F)(F)[N+]3=C(c5ccc[nH]5)C=CC3=C4)cc21 [Amitriptyline-a-2-NB590]	–	–	–	–	NanoBRET Fold Response ([2]; tracer at 0.1μM): 1.05; NanoBRET Fold Response ([2]; tracer at 1μM): 0.97
Cc1nc2n(c(=O)c1CCN1CCC(c3noc4cc(F)ccc34)CC1)CCCC2OC(=O)NCCOCCOCCOCCOCCNC(=O)CCc1ccc2n1[B-](F)(F)[N+]1=C(c3ccc[nH]3)C=CC1=C2 (stereo not shown) [Risperidone-2-NB590]	1.08	1.51	1.00	0.99	–
COc1ccc2[nH]c(-c3ccc(CNC(=O)CCOCCOCCOCCOCCNC(=O)CCc4ccc5n4[B-](F)(F)[N+]4=C(c6ccc[nH]6)C=CC4=C5)cc3)c(CCNC(C)=O)c2n1 [AzomelatoninICO9-2-NB590]	–	–	–	–	NanoBRET Fold Response ([1]; 0.1μM tracer): 1.03; NanoBRET Fold Response ([1]; 1μM tracer): 0.95; NanoBRET Fold Response ([2]; 0.1μM tracer): 0.87; NanoBRET Fold Response ([2]; 1μM tracer): 1.05
COc1ccccc1N1CCN(CCCCN2C(=O)c3ccc(CNC(=O)CCOCCOCCOCCOCCNC(=O)CCc4ccc5n4[B-](F)(F)[N+]4=C(c6ccc[nH]6)C=CC4=C5)cc3C2=O)CC1 [NAN-190-2-NB590]	–	–	1.02	–	–
O=C(CCc1ccc2n1[B-](F)(F)[N+]1=C(c3ccc[nH]3)C=CC1=C2)NCCOCCOCCNC(=O)OCCOCCN1CCN(C2=Nc3ccccc3Sc3ccccc32)CC1 [Quetiapine-a-2-NB590]	0.98	1.00	1.02	0.76	–
O=C(CCOCCOCCOCCOCCNC(=O)CCc1ccc2n1[B-](F)(F)[N+]1=C(c3ccc[nH]3)C=CC1=C2)NCCCN1CCN(C2=Nc3cc(Cl)ccc3Nc3ccccc32)CC1 [Clozapine-a-2-NB590]	–	–	–	–	NanoBRET Fold Response ([1]; HTR4, 0.1μM tracer): 1.02; NanoBRET Fold Response ([1]; HTR4, 1μM tracer): 1.12; NanoBRET Fold Response ([2]; GALR1, 0.1μM tracer): 1.05; NanoBRET Fold Response ([2]; GALR1, 1μM tracer): 1.09
N#CN=C(NCCCOc1cccc(CN2CCCCC2)c1)NCCNC(=O)CCOCCOCCOCCOCCNC(=O)CCc1ccc2n1[B-](F)(F)[N+]1=C(c3ccc[nH]3)C=CC1=C2 [Aminopotentidine-2-NB590]	0.97	1.05	1.02	0.99	–
O=C(CCc1ccc2n1[B-](F)(F)[N+]1=C(c3ccc[nH]3)C=CC1=C2)NCc1ccc(C(=O)NCCOCCOCCNCC(O)COc2cccc3ccccc23)cc1 (stereo not shown) [Propranolol-3-NB590]	–	–	–	–	NanoBRET Fold Response ([1]; HTR4, 0.1μM): 1.26; NanoBRET Fold Response ([1]; HTR4, 1μM): 1.41; NanoBRET Fold Response ([2]; GALR1, 0.1μM): 1.02; NanoBRET Fold Response ([2]; GALR1, 1μM): 0.96
O=C(CCc1ccc2n1[B-](F)(F)[N+]1=C(c3ccc[nH]3)C=CC1=C2)NCc1ccc(C(=O)NCCOCCC(=O)N[C@@H]2CC[C@@]3(O)[C@H]4Cc5ccc(O)c6c5[C@@]3(CCN4CC3CC3)[C@H]2O6)cc1 [Naltrexone-3-NB590]	0.97	1.05	0.99	0.89	–
COc1ccccc1N1CCN(CCCCN2C(=O)c3ccc(CNC(=O)CCOCCNC(=O)c4ccc(CNC(=O)CCc5ccc6n5[B-](F)(F)[N+]5=C(c7ccc[nH]7)C=CC5=C6)cc4)cc3C2=O)CC1 [NAN-190-3-NB590]	1.00	1.03	1.09	0.99	–
Cc1cc2c(s1)Nc1ccccc1N=C2N1CCN(CCCNC(=O)CCOCCOCCOCCOCCNC(=O)CCc2ccc3n2[B-](F)(F)[N+]2=C(c4ccc[nH]4)C=CC2=C3)CC1 [Olanzapine-a-2-NB590]	1.02	1.02	1.03	1.09	–
CCCn1c(=O)c2[nH]c(-c3ccc(OCC(=O)NCCNC(=O)CCOCCNC(=O)c4ccc(CNC(=O)CCc5ccc6n5[B-](F)(F)[N+]5=C(c7ccc[nH]7)C=CC5=C6)cc4)cc3)nc2n(CCC)c1=O [XAC-3-NB590]	1.03	1.09	1.02	1.04	–
N#CN/C(=N\CCNC(=O)c1ccc(N)cc1)NCCCOc1cccc(CN2CCCCC2)c1 [Aminopotentidine (unmodified)]	–	–	–	–	NanoBRET Fold Response ([1]; HTR4, other tracers/Aminopotentidine (unmodified), 0.1μM): 1.01; NanoBRET Fold Response ([1]; HTR4, other tracers/Aminopotentidine (unmodified), 1μM): 1.19
